From US9708314B2, “Heterocyclic amide compound” (NISSAN CHEMICAL INDUSTRIES, LTD., priority 2013, dated 2017)

How the values were obtained:
Type in all cases: in vivo
Digitaria ciliaris = experiment: Test Example 4: herbicidal effect by application to foliage (diluvial soil, plastic box); conditions: Application herbicide amount 320 g/ha; foliage application
How it was run: (§1)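 Seeds sown in sterilized diluvial soil, covered ~1.5 cm, grown 14 days in greenhouse at 25° C. to 30° C. Emulsion formulation diluted in water to set rate (g/ha) and sprayed onto stems and leaves. Effect scored visually 3 weeks later on 0–5 scale (5 = ≥90% herbicidal ratio, 0 = ≤5%).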

Veronica persica = experiment: as above; conditions: Application herbicide amount 320 g/ha; foliage application
How it was run: as §1

[1] = system: Echinochloa crus-galli var. crus-galli; experiment: as above; conditions: Application herbicide amount 320 g/ha; foliage application
How it was run: as §1

Lolium multiflorum Lam. = experiment: as above; conditions: Application herbicide amount 320 g/ha; foliage application
How it was run: as §1

Alopecurus myosuroides = experiment: as above; conditions: Application herbicide amount 320 g/ha; foliage application
How it was run: as §1

Apera spica-venti. = experiment: as above; conditions: Application herbicide amount 320 g/ha; foliage application
How it was run: as §1

Abutilon theophrasti = experiment: as above; conditions: Application herbicide amount 320 g/ha; foliage application
How it was run: as §1

Avena fatua = experiment: as above; conditions: Application herbicide amount 320 g/ha; foliage application
How it was run: as §1

Stellaria media = experiment: as above; conditions: Application herbicide amount 320 g/ha; foliage application
How it was run: as §1

Setaria viridis = experiment: as above; conditions: Application herbicide amount 320 g/ha; foliage application
How it was run: as §1

Galium spurium = experiment: as above; conditions: Application herbicide amount 320 g/ha; foliage application
How it was run: as §1

Chenopodium album = experiment: as above; conditions: Application herbicide amount 320 g/ha; foliage application
How it was run: as §1

Amaranthus retroflexus = experiment: as above; conditions: Application herbicide amount 320 g/ha; foliage application
How it was run: as §1

[2] = system: Beta vulgaris ssp. vulgaris; experiment: Test Example 4: effect on crop by application to foliage (diluvial soil, plastic box); conditions: Application herbicide amount 320 g/ha; foliage application
How it was run: as §1

[3] = system: directly sowed Oryza sativa; experiment: as above; conditions: Application herbicide amount 320 g/ha; foliage application
How it was run: as §1

Brassica campestris L. = experiment: as above; conditions: Application herbicide amount 320 g/ha; foliage application
How it was run: as §1

Triticum aestivum = experiment: as above; conditions: Application herbicide amount 320 g/ha; foliage application
How it was run: as §1

Glycine max = experiment: as above; conditions: Application herbicide amount 320 g/ha; foliage application
How it was run: as §1

Zea mays = experiment: as above; conditions: Application herbicide amount 320 g/ha; foliage application
How it was run: as §1

[4] = system: directly sowed Oryza sativa; experiment: Test Example 3: effect on crop by application to foliage (Wagner pot, water depth 0.1-0.5 cm); conditions: Nineteenth Table; application to foliage; application herbicide amount 320 g/ha
How it was run: (§2)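 Grading uses six bands of herbicidal ratio, from 0 (≤5%, almost no effect) to 5 (≥90%, almost completely withered). Treatment was a stem-and-leaf spray of diluted emulsion at a fixed g/ha on 14-day-old plants; evaluation after three weeks.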

[5] = system: Echinochloa crus-galli var. crus-galli; experiment: Test Example 3: herbicidal effect by application to foliage (Wagner pot, water depth 0.1-0.5 cm); conditions: Nineteenth Table; application to foliage; application herbicide amount 320 g/ha
How it was run: as §2

Cyperus difformis = experiment: as above; conditions: Nineteenth Table; application to foliage; application herbicide amount 320 g/ha
How it was run: as §2

Leptochloa chinensis = experiment: as above; conditions: Nineteenth Table; application to foliage; application herbicide amount 320 g/ha
How it was run: as §2

Compound | F (Digitaria ciliaris) herbicidal effect grade (Digitaria ciliaris) | R (Veronica persica) herbicidal effect grade (Veronica persica) | H (Echinochloa crus-galli var. crus-galli) herbicidal effect grade [1] | K (Lolium multiflorum Lam.) herbicidal effect grade (Lolium multiflorum Lam.) | J (Alopecurus myosuroides) herbicidal effect grade (Alopecurus myosuroides) | L (Apera spica-venti.) herbicidal effect grade (Apera spica-venti.) | M (Abutilon theophrasti) herbicidal effect grade (Abutilon theophrasti) | I (Avena fatua) herbicidal effect grade (Avena fatua) | P (Stellaria media) herbicidal effect grade (Stellaria media) | G (Setaria viridis) herbicidal effect grade (Setaria viridis) | Q (Galium spurium) herbicidal effect grade (Galium spurium) | O (Chenopodium album) herbicidal effect grade (Chenopodium album) | N (Amaranthus retroflexus) herbicidal effect grade (Amaranthus retroflexus) | f (Beta vulgaris ssp. vulgaris) effect on crop grade [2] | b (directly sowed Oryza sativa) effect on crop grade [3] | g (Brassica campestris L.) effect on crop grade (Brassica campestris L.) | e (Triticum aestivum) effect on crop grade (Triticum aestivum) | d (Glycine max) effect on crop grade (Glycine max) | c (Zea mays) effect on crop grade (Zea mays) | b (effect on crop grade) [4] | other results
CCSc1nnc2c(C(=O)Nc3nnco3)ccc(C(F)(F)F)n12 [1-106] | 5 (Herbicidal ratio of 90% or more (almost completely withered)) | 5 (Herbicidal ratio of 90% or more (almost completely withered)) | 5 (Herbicidal ratio of 90% or more (almost completely withered)) | 3 (Herbicidal ratio of 40% or more and less than 70%) | 1 (Herbicidal ratio of 5% or more and less than 20%) | 3 (Herbicidal ratio of 40% or more and less than 70%) | 4 (Herbicidal ratio of 70% or more and less than 90%) | 4 (Herbicidal ratio of 70% or more and less than 90%) | 5 (Herbicidal ratio of 90% or more (almost completely withered)) | 5 (Herbicidal ratio of 90% or more (almost completely withered)) | 4 (Herbicidal ratio of 70% or more and less than 90%) | 5 (Herbicidal ratio of 90% or more (almost completely withered)) | 5 (Herbicidal ratio of 90% or more (almost completely withered)) | 5 (Herbicidal ratio of 90% or more (almost completely withered)) | 3 (Herbicidal ratio of 40% or more and less than 70%) | 4 (Herbicidal ratio of 70% or more and less than 90%) | 3 (Herbicidal ratio of 40% or more and less than 70%) | 3 (Herbicidal ratio of 40% or more and less than 70%) | 1 (Herbicidal ratio of 5% or more and less than 20%) | 3 (Herbicidal ratio of 40% or more and less than 70%) | H (herbicidal effect grade) [5]: 5 (Herbicidal ratio of 90% or more (almost completely withered)); E (herbicidal effect grade) (Cyperus difformis): 5 (Herbicidal ratio of 90% or more (almost completely withered)); D (herbicidal effect grade) (Leptochloa chinensis): 5 (Herbicidal ratio of 90% or more (almost completely withered))
COCCOCc1nnc2c(C(=O)Nc3nnco3)ccc(C(F)(F)F)n12 [1-107] | 5 (Herbicidal ratio of 90% or more (almost completely withered)) | 5 (Herbicidal ratio of 90% or more (almost completely withered)) | 5 (Herbicidal ratio of 90% or more (almost completely withered)) | 3 (Herbicidal ratio of 40% or more and less than 70%) | 3 (Herbicidal ratio of 40% or more and less than 70%) | 3 (Herbicidal ratio of 40% or more and less than 70%) | 4 (Herbicidal ratio of 70% or more and less than 90%) | 4 (Herbicidal ratio of 70% or more and less than 90%) | 5 (Herbicidal ratio of 90% or more (almost completely withered)) | 5 (Herbicidal ratio of 90% or more (almost completely withered)) | 4 (Herbicidal ratio of 70% or more and less than 90%) | 5 (Herbicidal ratio of 90% or more (almost completely withered)) | 5 (Herbicidal ratio of 90% or more (almost completely withered)) | 5 (Herbicidal ratio of 90% or more (almost completely withered)) | 4 (Herbicidal ratio of 70% or more and less than 90%) | 5 (Herbicidal ratio of 90% or more (almost completely withered)) | 3 (Herbicidal ratio of 40% or more and less than 70%) | 5 (Herbicidal ratio of 90% or more (almost completely withered)) | 1 (Herbicidal ratio of 5% or more and less than 20%) | 3 (Herbicidal ratio of 40% or more and less than 70%) | H (herbicidal effect grade) [5]: 5 (Herbicidal ratio of 90% or more (almost completely withered)); E (herbicidal effect grade) (Cyperus difformis): 5 (Herbicidal ratio of 90% or more (almost completely withered)); D (herbicidal effect grade) (Leptochloa chinensis): 5 (Herbicidal ratio of 90% or more (almost completely withered))
CCCSc1nnc2c(C(=O)Nc3nnco3)ccc(C(F)(F)F)n12 [1-108] | 5 (Herbicidal ratio of 90% or more (almost completely withered)) | 5 (Herbicidal ratio of 90% or more (almost completely withered)) | 5 (Herbicidal ratio of 90% or more (almost completely withered)) | 2 (Herbicidal ratio of 20% or more and less than 40%) | 1 (Herbicidal ratio of 5% or more and less than 20%) | 2 (Herbicidal ratio of 20% or more and less than 40%) | 4 (Herbicidal ratio of 70% or more and less than 90%) | 2 (Herbicidal ratio of 20% or more and less than 40%) | 5 (Herbicidal ratio of 90% or more (almost completely withered)) | 5 (Herbicidal ratio of 90% or more (almost completely withered)) | 3 (Herbicidal ratio of 40% or more and less than 70%) | 5 (Herbicidal ratio of 90% or more (almost completely withered)) | 5 (Herbicidal ratio of 90% or more (almost completely withered)) | 5 (Herbicidal ratio of 90% or more (almost completely withered)) | 1 (Herbicidal ratio of 5% or more and less than 20%) | 3 (Herbicidal ratio of 40% or more and less than 70%) | 1 (Herbicidal ratio of 5% or more and less than 20%) | 4 (Herbicidal ratio of 70% or more and less than 90%) | 1 (Herbicidal ratio of 5% or more and less than 20%) | 1 (Herbicidal ratio of 5% or more and less than 20%) | H (herbicidal effect grade) [5]: 5 (Herbicidal ratio of 90% or more (almost completely withered)); E (herbicidal effect grade) (Cyperus difformis): 5 (Herbicidal ratio of 90% or more (almost completely withered)); D (herbicidal effect grade) (Leptochloa chinensis): 5 (Herbicidal ratio of 90% or more (almost completely withered))
COCCNc1nnc2c(C(=O)Nc3nnc(C)o3)ccc(C(F)(F)F)n12 [1-109] | 4 (Herbicidal ratio of 70% or more and less than 90%) | 4 (Herbicidal ratio of 70% or more and less than 90%) | 5 (Herbicidal ratio of 90% or more (almost completely withered)) | 0 (Herbicidal ratio of 5% or less (almost no effect)) | 0 (Herbicidal ratio of 5% or less (almost no effect)) | 0 (Herbicidal ratio of 5% or less (almost no effect)) | 4 (Herbicidal ratio of 70% or more and less than 90%) | 1 (Herbicidal ratio of 5% or more and less than 20%) | 4 (Herbicidal ratio of 70% or more and less than 90%) | 3 (Herbicidal ratio of 40% or more and less than 70%) | 2 (Herbicidal ratio of 20% or more and less than 40%) | 5 (Herbicidal ratio of 90% or more (almost completely withered)) | 4 (Herbicidal ratio of 70% or more and less than 90%) | 4 (Herbicidal ratio of 70% or more and less than 90%) | 0 (Herbicidal ratio of 5% or less (almost no effect)) | 4 (Herbicidal ratio of 70% or more and less than 90%) | 0 (Herbicidal ratio of 5% or less (almost no effect)) | 3 (Herbicidal ratio of 40% or more and less than 70%) | 1 (Herbicidal ratio of 5% or more and less than 20%) | 2 (Herbicidal ratio of 20% or more and less than 40%) | H (herbicidal effect grade) [5]: 5 (Herbicidal ratio of 90% or more (almost completely withered)); E (herbicidal effect grade) (Cyperus difformis): 3 (Herbicidal ratio of 40% or more and less than 70%); D (herbicidal effect grade) (Leptochloa chinensis): 5 (Herbicidal ratio of 90% or more (almost completely withered))
